Patent US20150175530A1, “ANTIBACTERIAL AGENTS” (priority 2012, published 2015)
≈ marks a conversion by molar mass, not a printed value. Like-named read-outs stand apart in the source and are kept apart here.

How the values were obtained:
[1] = tested on: bacterial isolates (clinical isolates and ATCC quality control strains); assay: Minimum Inhibitory Concentrations (MICs) by broth microdilution (CLSI susceptibility testing); assay type: cell-based; conditions: for Minimum Inhibitory Concentrations (MICs) APAE001: APAE001 is Pseudomonas aeruginosa ATCC27853
Description: Bacterial isolates were cultivated from −70° C. frozen stocks by overnight passages at 35° C. in ambient air on Mueller-Hinton agar (Beckton Dickinson, Franklin Lakes, N.J.). Clinical isolates tested were obtained from various geographically diverse hospitals in the US and abroad (Focus Diagnostics, Herndon, Va. and JMI, North Liberty, Iowa). Quality control strains were from the American Type Culture Collection (ATCC; Rockville, Md.).
Minimum Inhibitory Concentrations (MICs) were determined by the broth microdilution method in accordance with the Clinical and Laboratory Standards Institute (CLSI) guidelines. In brief, organism suspensions were adjusted to a 0.5 McFarland standard to yield a final inoculum between 3×10^5 and 7×10^5 colony-forming units (CFU)/mL. Drug dilutions and inocula were made in sterile, cation adjusted Mueller-Hinton Broth (Beckton Dickinson). An inoculum volume of 100 μL was added to wells containing 100 μL of broth with 2-fold serial dilutions of drug. All inoculated microdilution trays were incubated in ambient air at 35° C. for 18-24 h. Following incubation, the lowest concentration of the drug that prevented visible growth (OD600 nm<0.05) was recorded as the MIC. Performance of the assay was monitored by the use of laboratory quality-control strains and levofloxacin, a compound with a defined MIC spectrum, in accordance with CLSI guidelines.

[2] = tested on: 3 P. aeruginosa strains (APAE001, APAE002, APAE006); assay: Protein binding: fold change in MIC in the presence of 2% HSA and 0.05% AGP, Geomean of 3 strains; assay type: cell-based, Pseudomonas aeruginosa; conditions: MIC in the presence of 2% HSA and 0.05% AGP divided by MIC in the absence; Geomean of 3 P. aeruginosa strains (APAE001, APAE002, APAE006)
Description: The effect of human serum albumin (HSA) and α-1-acid glycoprotein (AGP) from human plasma, which are known to nonspecifically bind to certain antibiotics and thereby reduce their activity (Banéres-Roquet et al. 2009 “Use of a Surface Plasmon Resonance Method to Investigate Antibiotic and Plasma Protein Interactions” Antimicrob. Agents and Chemother. 53(4):1528-1531), was assessed against 3 P. aeruginosa strains (APAE001, APAE002, APAE006). APAE001 is Pseudomonas aeruginosa ATCC27853; APAE002 is a wildtype lab strain of Pseudomonas aeruginosa known as PAM1020 or PA01. APAE006 is a strain of […]/PA01 with efflux deletions: delta mexAB-oprM::CM delta CD-oprJ::Gm delta mexEF-oprN::omega Hg. Lomovskaya, 0 et al. 1999. Use of a Genetic Approach To Evaluate the Consequences of Inhibition of Efflux Pumps in P aeruginosa. Antimicrob. Agents Chemother. 43: 1340-1346.
The standard procedure described in Susceptibility Testing was utilized with one adjustment, specifically 2% HSA and 0.05% AGP were added to the cation adjusted Mueller-Hinton Broth. The MIC for each strain of interest was then assessed in the presence and absence of HSA/AGP. Following MIC determination, the fold change in MIC was determined for each individual strain by dividing the MIC in the presence of HSA/AGP by the MIC in the absence of HSA/AGP. The protein binding Geomean was then calculated using these 3 values.

[3] = APAE1096 is a clinical isolate, broth microdilution, read-out: Minimum Inhibitory Concentrations (MICs) APAE1096
[4] = Pseudomonas aeruginosa, APAE002 is a wildtype lab strain of Pseudomonas aeruginosa known as PAM1020 or PA01, broth microdilution, read-out: Minimum Inhibitory Concentrations (MICs) APAE002
[5] = Pseudomonas aeruginosa, ATCC27853, APAE001 is Pseudomonas aeruginosa ATCC27853, broth microdilution, read-out: Minimum Inhibitory Concentrations (MICs) APAE001
[6] = APAE1096 is a clinical isolate, broth microdilution
[7] = APAE002 is a wildtype lab strain of Pseudomonas aeruginosa known as PAM1020 or PA01, broth microdilution
[8] = Pseudomonas aeruginosa, ATCC27853, read-out: Minimum Inhibitory Concentrations (MICs) APAE001
[9] = Pseudomonas aeruginosa, read-out: Minimum Inhibitory Concentrations (MICs) APAE002
[10] = read-out: Minimum Inhibitory Concentrations (MICs) APAE1096

| Structure (SMILES) | MIC [1, 3] [µg/mL] | MIC [1, 4] [µg/mL] | MIC [1, 5] [µg/mL] | Protein Binding PB (Geomean of fold change in MIC) [2] | Minimum Inhibitory Concentrations (MICs) APAE1096 [1, 6] | Minimum Inhibitory Concentrations (MICs) APAE001 ([1]; broth microdilution) | Minimum Inhibitory Concentrations (MICs) APAE002 [1, 7] | MIC [1, 8] [µg/mL] | MIC [1, 9] [µg/mL] | MIC [1, 10] [µg/mL] |
| --- | --- | --- | --- | --- | --- | --- | --- | --- | --- | --- |
| CC(C)(N)[C@H](NC(=O)c1ccc(C#CC#CC2C[C@H]2C(O)CO)cc1)C(=O)NO (mixture of isomers) [Compound 25, N—((S)-3-amino-1-(hydroxyamino)-3-methyl-1-oxobutan-2-yl)-4-((2-(1,2-dihydroxyethyl)cyclopropyl)buta-1,3-diynyl)benzamide] | 1 to 8 (≈ 2.5 to 20 µM) | < 1 | < 1 | 11.5 | – | – | – | – | – | – |
| CC(C#CC#Cc1ccc(C(=O)N[C@H](C(=O)NO)C(C)(C)N)cc1)C(O)CO (single isomer, unassigned) [Compound 20A] | 8 to 16 (≈ 20.6 to 41.3 µM) | 1 to 8 (≈ 2.58 to 20.6 µM) | 1 to 8 (≈ 2.58 to 20.6 µM) | 2.0 | – | – | – | – | – | – |
| CC(C#CC#Cc1ccc(C(=O)N[C@H](C(=O)NO)C(C)(C)N)cc1)C(O)CO (single isomer, unassigned) [Compound 20B] | – | – | – | 1.0 | – | – | – | – | – | – |
| CC(C)(N)[C@H](NC(=O)c1ccc(C#CC#CC2C[C@H](O)[C@@H]2CO)cc1)C(=O)NO (single isomer, unassigned) [Compound 30A] | – | < 1 | < 1 | 2.5 | C (C = MIC's of greater than 8.0 μg/mL to 16.0 μg/mL) | – | – | – | – | – |
| CC(C)(N)[C@H](NC(=O)c1ccc(C#CC#CC2CC(O)[C@@H]2CO)cc1)C(=O)NO (single isomer, unassigned) [Compound 30B] | – | – | – | 3.2 | B (B = MIC's of greater than 1.0 μg/mL to 8.0 μg/mL) | A (A = MIC's of 1.0 μg/mL or less) | A (A = MIC's of 1.0 μg/mL or less) | – | – | – |
| CC(C)(N)[C@H](NC(=O)c1ccc(C#CC#CC2C[C@@H](O)[C@H]2CO)cc1)C(=O)NO (single isomer, unassigned) [Compound 31A] | – | 1 to 8 (≈ 2.5 to 20 µM) | 1 to 8 (≈ 2.5 to 20 µM) | 2.5 | C (C = MIC's of greater than 8.0 μg/mL to 16.0 μg/mL) | – | – | – | – | – |
| CC(C)(N)[C@H](NC(=O)c1ccc(C#CC#CC2CC(O)[C@H]2CO)cc1)C(=O)NO (single isomer, unassigned) [Compound 31B] | – | – | – | 3.2 | B (B = MIC's of greater than 1.0 μg/mL to 8.0 μg/mL) | A (A = MIC's of 1.0 μg/mL or less) | A (A = MIC's of 1.0 μg/mL or less) | – | – | – |
| CC(C)(N)[C@H](NC(=O)c1ccc(C#CC#CCO)cc1)C(=O)NO [Compound 1, (S)—N-(3-amino-1-(hydroxyamino)-3-methyl-1-oxobutan-2-yl)-4-(5-hydroxypenta-1,3-diynyl)benzamide] | – | – | – | 4.1 | – | – | – | < 1 | < 1 | < 1 |
| CC(C)(N)[C@H](NC(=O)c1ccc(C#CCO)cc1)C(=O)NO [Compound 2, (S)—N-(3-amino-1-(hydroxyamino)-3-methyl-1-oxobutan-2-yl)-4-(3-hydroxyprop-1-ynyl)benzamide] | 8 to 16 (≈ 26.2 to 52.4 µM) | 1 to 8 (≈ 3.28 to 26.2 µM) | < 1 | 1.3 | – | – | – | – | – | – |
| CC(C)(N)[C@H](NC(=O)c1ccc(C#C/C=C/CO)cc1)C(=O)NO [Compound 3, (S,E)-N-(3-amino-1-(hydroxyamino)-3-methyl-1-oxobutan-2-yl)-4-(5-hydroxypent-3-en-1-ynyl)benzamide] | 1 to 8 (≈ 3.02 to 24.1 µM) | < 1 | < 1 | 1.3 | – | – | – | – | – | – |
| CC(C)(O)[C@H](NC(=O)c1ccc(C#CC#CCO)cc1)C(=O)NO [Compound 4, (S)—N-(3-hydroxy-1-(hydroxyamino)-3-methyl-1-oxobutan-2-yl)-4-(5-hydroxypenta-1,3-diynyl)benzamide] | 1 to 8 (≈ 3.03 to 24.2 µM) | < 1 | < 1 | – | – | – | – | – | – | – |
| CNC(C)(C)[C@H](NC(=O)c1ccc(C#CC#CCO)cc1)C(=O)NO [Compound 5, (S)—N-(1-(hydroxyamino)-3-methyl-3-(methylamino)-1-oxobutan-2-yl)-4-(5-hydroxypenta-1,3-diynyl)benzamide] | < 1 | < 1 | < 1 | 1.6 | – | – | – | – | – | – |
| CC(C)(NCCO)[C@H](NC(=O)c1ccc(C#CC#CCO)cc1)C(=O)NO [Compound 6, (S)—N-(1-(hydroxyamino)-3-(2-hydroxyethylamino)-3-methyl-1-oxobutan-2-yl)-4-(5-hydroxypenta-1,3-diynyl)benzamide] | 1 to 8 (≈ 2.68 to 21.4 µM) | < 1 | < 1 | 2.6 | – | – | – | – | – | – |
| CC(C)(N)[C@H](NC(=O)c1ccc(C#CC#CCCO)cc1)C(=O)NO [Compound 7, (S)—N-(3-amino-1-(hydroxyamino)-3-methyl-1-oxobutan-2-yl)-4-(6-hydroxyhexa-1,3-diynyl)benzamide] | < 1 | < 1 | < 1 | 2.5 | – | – | – | – | – | – |
| CC(C)(N)[C@H](NC(=O)c1ccc(C#CCCO)cc1)C(=O)NO [Compound 8, (S)—N-(3-amino-1-(hydroxyamino)-3-methyl-1-oxobutan-2-yl)-4-(4-hydroxybut-1-ynyl)benzamide] | 8 to 16 (≈ 25.1 to 50.1 µM) | 1 to 8 (≈ 3.13 to 25.1 µM) | 1 to 8 (≈ 3.13 to 25.1 µM) | 0.9 | – | – | – | – | – | – |
| CNC(C)(C)[C@H](NC(=O)c1ccc(C#CC#CCCO)cc1)C(=O)NO [Compound 9, (S)—N-(1-(hydroxyamino)-3-methyl-3-(methylamino)-1-oxobutan-2-yl)-4-(6-hydroxyhexa-1,3-diynyl)benzamide] | – | – | – | 1.5 | – | – | – | < 1 | < 1 | < 1 |
| CCNC(C)(C)[C@H](NC(=O)c1ccc(C#CC#CCCO)cc1)C(=O)NO [Compound 10, (S)—N-(3-(ethylamino)-1-(hydroxyamino)-3-methyl-1-oxobutan-2-yl)-4-(6-hydroxyhexa-1,3-diynyl)benzamide] | – | – | – | 2.2 | – | – | – | < 1 | < 1 | < 1 |
| CC(C)(N)[C@H](NC(=O)c1ccc(C#CC#CC(O)CCO)cc1)C(=O)NO (stereo partly drawn) [Compound 46, N—((S)-3-amino-1-(hydroxyamino)-3-methyl-1-oxobutan-2-yl)-4-(5,7-dihydroxyhepta-1,3-diyn-1-yl)benzamide] | 1 to 8 (≈ 2.68 to 21.4 µM) | < 1 | < 1 | – | – | – | – | – | – | – |
| CC(C)(O)[C@H](NC(=O)c1ccc(C#CC#CC(O)CO)cc1)C(=O)NO (stereo partly drawn) [Compound 60, 4-(5,6-dihydroxyhexa-1,3-diyn-1-yl)-N—((S)-3-hydroxy-1-(hydroxyamino)-3-methyl-1-oxobutan-2-yl)benzamide] | – | – | 1 to 8 (≈ 2.77 to 22.2 µM) | – | – | – | – | – | – | – |
